Laboratory results published in patent publication US4086416A, “Septacidin analogs” (Stanford Research Institute, priority 1977, dated 1978).
Entries after “also recorded” stand apart in the source; their conditions may differ. Read-outs that look alike come from different tables or passages of the source. Each block holds one compound with its values, some of them ahead of it.

Legend:
[1] = tested on: cultured lymphoid leukemia L1210 cells; experiment: inhibition of DNA synthesis in cultured L1210 leukemia cells; format: cell-based
Procedure: (§1) The septacidin analogs 2 and 3 (corresponding to the compounds of Examples I and II, respectively) were tested first in cultured lymphoid leukemia L1210 cells for inhibition of nucleic acid syntheses and for cytotoxicity,by previously reported procedures. A sample of natural septacidin (compound 1) was obtained from the National Cancer Institute and included for comparison. Data on adriamycin (compound 4) are also included. The analogs were then tested, along with 1 and 4, against lymphocytic leukemia P388 implanted in mice, under the auspices of the NCI and according to its protocols which use the increased survival time of treated animals compared to controls as the measure of antitumor efficacy.
(§2) ^b Assay described in G. Tong, W. W. Lee, D. R. Black and D. W. Henry

[2] = tested on: cultured lymphoid leukemia L1210 cells; experiment: in vitro activity in cultured L1210 cells (inhibition of nucleic acid syntheses); format: cell-based
Procedure: as §1, §2

[3] = tested on: cultured lymphoid leukemia L1210 cells; experiment: inhibition of RNA synthesis in cultured L1210 leukemia cells; format: cell-based
Procedure: as §1, §2

[4] = tested on: lymphocytic leukemia P388 implanted in mice; experiment: antitumor efficacy vs P388 leukemia in mice (increased survival time); format: in vivo; details: for antitumor activity in mouse tests: NCI criteria, doses of 0.5-1.0 mg/kg; for Optimum Antitumor Efficacy, T/C / Optimum Antitumor Dose: P388 leukemia in mice; for Optimum Antitumor Efficacy, T/C: at optimum dose (septacidin 0.50, compounds 2 and 3 1.0 mg/kg), compounds 2 and 3 average from two tests; for Optimum Antitumor Dose: dose producing the highest T/C
Procedure: as §1
^c Assay described in R. I. Geran, N. H. Greenberg, M. M. MacDonald,
A. M. Schumacker and B. J. Abbott, Cancer Chemother. Rep., Part 3, 3 (No.
2), 9 (1972). Protocol 1.200. Other doses were higher or lower by a facto
of 2. Each compound has 2-4 active doses. Compounds were of borderline
solubility, and some doses were injection as suspensions. Water, water +
Tween 80, or saline + Tween 80 (emul. agent, ICI) were used as vehicles.
By definition, a compound is active if T/C […] 125. For compounds 2
and 3 the T/C is the average from two tests. Optimum dose is the one
producing the highest T/C.

[5] = tested on: cultured lymphoid leukemia L1210 cells; experiment: cytotoxicity vs cultured L1210 leukemia cells; format: cell-based; details: for IC50: cultured L1210 leukemia cells, read-out: Cytotoxicity I50
Procedure: as §1, §2

solubility = format: physicochemical
isolated helical DNA [6] = experiment: binding to isolated helical DNA in solution (effect on helix-coil transition temperature)
Source text: The in vivo efficacy of adriamycin is much higher, but there are other differences.
as §2
by the modified procedure.

[7] = antitumor activity (test not specified)
[8] = tested on: cultured lymphoid leukemia L1210 cells; details: cited from earlier work
[9] = tested on: cultured lymphoid leukemia L1210 cells; details: data from Tong et al. 1976, read-out: Inhibition of Synthesis of RNA, ED50; cited from earlier work
isolated helical DNA [10] = details: cited from earlier work
[11] = tested on: lymphocytic leukemia P388 implanted in mice; details: cited from earlier work
[12] = tested on: cultured lymphoid leukemia L1210 cells; details: data from Tong et al. 1976, read-out: Inhibition of Synthesis of DNA, ED50; cited from earlier work
[13] = Mus musculus, cultured L1210 leukemia cells, read-out: Inhibition of Synthesis of DNA, ED50
[14] = Mus musculus, cultured L1210 leukemia cells, read-out: Inhibition of Synthesis of RNA, ED50
[15] = in vitro, compared with septacidin (1)

SMILES: CCCCCC(=O)NCC(=O)NC1C(C)OC(Nc2ncnc3[nH]cnc23)C(O)C1O [Example VI, 6-[4,6-Didoexy-4-(caproylglycyl)amino-β-L-glucopyranosylamino]-9H-purine]
antitumor activity [7]: inactive; also recorded: loss of activity was total

SMILES: COc1cccc2c1C(=O)c1c(O)c3c(c(O)c1C2=O)C[C@@](O)(C(=O)CO)C[C@@H]3O[C@H]1C[C@H](N)[C@H](O)[C@H](C)O1 [Adriamycin]
cytotoxicity [8]: highly cytotoxic | IC50 ([8]; cultured L1210 leukemia cells, data from Tong et al. 1976, read-out: Cytotoxicity I50): 0.032 µM | IC50 [9]: 0.67 µM | Binding to Isolated Helical DNA in Solution, ΔTm (isolated helical DNA [10]; modified procedure, data from Tong et al. 1976): 13.6 °C | binding to isolated helical DNA in solution (isolated helical DNA [10]; ΔTm): binds strongly | Optimum Antitumor Efficacy, T/C ([11]; P388 leukemia in mice, at 1.0 mg/kg, qd 1-9, data from Tong et al. 1976): 193% | Optimum Antitumor Dose ([11]; P388 leukemia in mice, qd 1-9, data from Tong et al. 1976): 1.0 mg/kg | in vivo efficacy ([11]; adriamycin compared with 2): much higher | IC50 [12]: 1.5 µM

More lines, main results first:

IC50 [1, 13]: 29 µM | IC50 [3, 14]: 18 µM | solubility in CH3OH (solubility): moderately soluble | solubility in H2O or saline (solubility): slightly soluble
SMILES: CCCCCCCCCCCC(=O)NCC(=O)N[C@@H]1[C@@H](O)[C@H](O)[C@@H](Nc2ncnc3[nH]cnc23)O[C@H]1C [Compound 3, 6-[4,6-Dideoxy-4-(lauroylglycyl)amino-β-L-glucopyranosylamino]-9H-purine]
in vitro activity ([2]; compared with septacidin (1) or analog 2): noticeably less potent; also recorded: decreased activity in vitro | antitumor activity in mouse tests ([4]; P388 in mice): confirmed activity | Optimum Antitumor Efficacy, T/C ([4]; qd 1-9): 137% | Optimum Antitumor Dose ([4]; qd 1-9): 1.0 mg/kg | efficacy in vivo ([4]; fatty acid shortened from 16 to 12 carbons, compared with 2): slight loss of efficacy in vivo | IC50 ([5]; Mus musculus): > 10 µM

IC50 [1, 13]: 2.6 µM | IC50 [3, 14]: 0.88 µM | Binding to Isolated Helical DNA in Solution, ΔTm (isolated helical DNA [6]): 0.6 °C | binding to isolated helical DNA in solution (isolated helical DNA [6]; ΔTm): binds only weakly | solubility in CH3OH (solubility): moderately soluble | solubility in H2O or saline (solubility): slightly soluble
SMILES: CC(C)CCCCCCCCCCCCC(=O)NCC(=O)NC1C(C)OC(Nc2ncnc3[nH]cnc23)C(O)C1O [Compound 2, 6-[4,6-Dideoxy-4-(isopalmitoylglycyl)amino-β-L-glucopyranosylamino]-9H-purine]
potency in the DNA test [1, 15]: not as potent | inhibition of nucleic acid synthesis [2]: potent inhibition of nucleic acid synthesis | response in the RNA test [3, 15]: a response nearly the same as 1 | antitumor activity in mouse tests ([4]; P388 in mice): confirmed activity | Optimum Antitumor Efficacy, T/C ([4]; qd 1-9): 160% | Optimum Antitumor Dose ([4]; qd 1-9): 1.0 mg/kg | IC50 ([5]; Mus musculus): > 20 µM | cytotoxic effects ([5]; at soluble levels): could not be observed at soluble levels | antitumor activity [7]: enhanced antitumor activity | potency compared with adriamycin ([7]; comparison of both in vivo and in vitro data): comparable in potency

IC50 ([1]; cultured L1210 cells, corrected for 75% purity, assuming inactive impurities, read-out: Inhibition of Synthesis of DNA, ED50, corrected for purity): 0.23 µM | IC50 ([1]; cultured L1210 leukemia cells, read-out: Inhibition of Synthesis of DNA, ED50): 0.3 µM | IC50 ([3]; cultured L1210 cells, corrected for 75% purity, assuming inactive impurities, read-out: Inhibition of Synthesis of RNA, ED50, corrected for purity): 0.53 µM | IC50 ([3]; cultured L1210 leukemia cells, read-out: Inhibition of Synthesis of RNA, ED50): 0.7 µM
SMILES: CC(C)CCCCCCCCCCCCC(=O)NCC(=O)NC1C(O)C(O)C(Nc2ncnc3nc[nH]c23)OC1C(O)CO (stereo not drawn) [Septacidin]
Optimum Antitumor Dose, corrected for purity ([4]; P388 in mice, qd 1-9, corrected for 75% purity, assuming inactive impurities): 0.38 mg/kg | antitumor activity in mouse tests ([4]; P388 in mice): high antitumor potency | Optimum Antitumor Efficacy, T/C ([4]; qd 1-9): 154% | Optimum Antitumor Dose ([4]; qd 1-9): 0.50 mg/kg | IC50 [5]: > 5 µM
